Patent publication US20240325398A1, “COMBINATION THERAPIES” (Infinity Pharmaceuticals, Inc., priority 2014, published 2024)

Legend:
WSU-NHL = test: Combination study, ATPLite 72 h, dose matrix (Synergy Score, CI50); settings: combination with Compound 1, 72 h
Mino = test: as above; settings: combination with Compound 1
NCI-H929 = test: as above; settings: combination with Compound 1
OMP-2 = test: as above; settings: combination with Compound 1; OPM-2
Description: (§1) Cells are thawed from a liquid nitrogen preserved state. Once cells have been expanded and divide at their expected doubling times, screening begins. Cells are seeded in growth media in either black 1536-well or 384-well tissue culture treated plates. Cells are then equilibrated in assay plates via centrifugation and placed in incubators attached to the Dosing Modules at 37° C. for 24 hours before treatment. […] These Tzero (To) plates are read using ultra-sensitive luminescence on Envision plate readers (Perkin Elmer). Treated assay plates are incubated with compound for 72 hours. After 72 hours, plates are developed for endpoint analysis using ATPLite. All data points are collected via automated processes, quality controlled and analyzed using Zalicus software.
(§2) where T is treated cell count and V is untreated (vehicle) cell count (at 72 hours). I ranges from 0% (when T=V) to 100% (when T=0). […] The measure of effect in the experiment can be the inhibition of cellular response relative to the untreated level (vehicle alone). […] The inhibition ranges from 0% at the untreated level to 100% when T=0. Inhibition levels are negative for agents that actually increase levels. Other effect measures, such as an activity ratio r=T/V may be more appropriate for some assays. When activity ratios (e.g, fold increase over stimulated control) are being used, the effect can be measured using an induction 1=ln(T/V). With this definition, all effect expressions are the same as for inhibition.
(§3) Growth Inhibition (GI) is used as a measure of cell viability. […] A GI reading of 100% represents complete growth inhibition—T72 compound-treated and T0 vehicle signals are matched. […] A GI reading of 200% represents complete death of all cells in the culture well. Compounds reaching an activity plateau of GI 200% are considered cytotoxic. GI is calculated by applying the following test and equation:
(§4) Combination analysis data were collected in a 6×6 dose matrix. Synergy is calculated by comparing a combination's response to those of its single compound, against the drug-with-itself dose-additive reference model. Deviations from dose additivity may be assessed visually on an isobologram or numerically with a Combination Index (CI). […] Additive effect is CI=1.0. […] Antagonistic effect is CI>1.0.
(§5) To measure combination effects in excess of Loewe additivity, a scalar measure to characterize the strength of synergistic interaction termed the Synergy Score is devised. The Synergy Score is calculated as:
(§6) The fractional inhibition for each component agent and combination point in the matrix is calculated relative to the median of all vehicle-treated control wells. The Synergy Score equation integrates the experimentally-observed activity volume at each point in the matrix in excess of a model surface numerically derived from the activity of the component agents using the Loewe model for additivity. Additional terms in the Synergy Score equation (above) are used to normalize for various dilution factors used for individual agents and to allow for comparison of synergy scores across an entire experiment. The inclusion of positive inhibition gating or an Idata multiplier removes noise near the zero effect level, and biases results for synergistic interactions at that occur at high activity levels.
(§7) Loewe Volume (Loewe Vol) is used to assess the overall magnitude of the combination interaction in excess of the Loewe additivity model. Loewe Volume is particularly useful when distinguishing synergistic increases in a phenotypic activity (positive Loewe Volume) versus synergistic antagonisms (negative Loewe Volume). […] This model defines additivity as a non-synergistic combination interaction where the combination dose matrix surface should be indistinguishable from either drug crossed with itself.

[1] = as above; settings: combination with Compound 1; OPM-2
Description: as §1, §2, §3, §4, §5, §6, §7

U-2932 = test: as above; settings: combination with Compound 1, 72 h
Description: as §1, §2, §3, §4, §5, §6
(§8) Loewe Volume (Loewe Vol) is used to assess the overall magnitude of the combination interaction in excess of the Loewe additivity model. Loewe Volume is particularly useful when distinguishing synergistic increases in a phenotypic activity (positive Loewe Volume) versus synergistic antagonisms (negative Loewe Volume). […] This model defines additivity as a non-synergistic combination interaction where the combination dose matrix surface should be indistinguishable from either drug crossed with itself. The calculation for Loewe additivity is:

GRANTA-519 = test: as above; settings: combination with Compound 1
KARPAS-299 = test: as above; settings: combination with Compound 1
Description: as §1, §2, §3, §4, §5, §6, §7

Farage = test: as above; settings: combination with Compound 1; Farage; 72 h
Description: as §1, §2, §3, §4
The isobologram was drawn by identifying the locus of concentrations that correspond to crossing the indicated inhibition level. This is done by finding the crossing point for each single agent concentration in a dose matrix across the concentrations of the other single agent. Practically, each vertical concentration CY is held fixed while a bisection algorithm is used to identify the horizontal concentration CX in combination with that vertical dose that gives the chosen effect level in the response surface Z(CX,CY). These concentrations are then connected by linear interpolation to generate the isobologram display. For synergistic interactions, the isobologram contour fall below the additivity threshold and approaches the origin, and an antagonistic interaction would lie above the additivity threshold. The error bars represent the uncertainty arising from the individual data points used to generate the isobologram. The uncertainty for each crossing point is estimated from the response errors using bisection to find the concentrations where Z−αZ(CX,CY) and Z+σZ(CX,CY) cross Icut, where αZ is the standard deviation of the residual error on the effect scale.
as §5
The fractional inhibition for each component agent and combination point in the matrix is calculated relative to the median of all vehicle-treated control wells.

SU-DHL-4-epst = test: as above; settings: combination with Compound 1, 72 h
DOHH-2 = test: as above; settings: combination with Compound 1, 72 h
OCI-Ly7 = test: as above; settings: combination with Compound 1, 72 h
TMD8 = test: as above; settings: combination with Compound 1; TMD8; 72 h
SU-DHL-10-epst = test: as above; settings: combination with Compound 1, 72 h
RL = test: as above; settings: combination with Compound 1, 72 h
Description: as §1, §2, §3, §4, §5, §6, §7

RPMI-8226 = test: as above; settings: combination with Compound 1
HH = test: as above; assay type: cell-based; settings: combination with Compound 1
Description: The method is described as follows.
Additive effect is CI=1.0. […] Antagonistic effect is CI>1.0.
The Synergy Score is calculated as: […]

KARPAS-422 = test: as above; settings: combination with Compound 1, 72 h
Jeko-1 = test: as above; settings: combination with Compound 1
OCI-Ly3 = test: as above; settings: combination with Compound 1; OCI-Ly3; 72 h
Description: as §1, §2, §3, §4, §5, §6, §8

HBL-1 = test: as above; settings: combination with Compound 1, 72 h

NC1(c2ccc(-c3nc4ccn5c(=O)[nH]nc5c4cc3-c3ccccc3)cc2)CCC1 [MK-2206, 8-[4-(1-aminocyclobutyl)phenyl]-9-phenyl-2H-[1,2,4]triazolo[3,4-f][1,6]naphthyridin-3-one]
T (T=0.5 to <0.7): CI50 growth inhibition (NCI-H929) | CI50 growth inhibition (KARPAS-422) | CI50 growth inhibition (HBL-1)
S (S=0.01 to <0.5): CI50 growth inhibition (WSU-NHL) | CI50 inhibition (WSU-NHL) | CI50 growth inhibition [1] | CI50 growth inhibition (GRANTA-519) | CI50 growth inhibition (Farage) | CI50 inhibition (Farage) | CI50 growth inhibition (SU-DHL-4-epst) | CI50 inhibition (SU-DHL-4-epst) | CI50 growth inhibition (DOHH-2) | CI50 inhibition (DOHH-2) | CI50 growth inhibition (TMD8) | CI50 inhibition (TMD8) | CI50 growth inhibition (SU-DHL-10-epst) | CI50 inhibition (SU-DHL-10-epst) | CI50 growth inhibition (RL) | CI50 inhibition (RL) | CI50 growth inhibition (HH) | CI50 inhibition (HH) | CI50 inhibition (KARPAS-422) | CI50 growth inhibition (Jeko-1) | CI50 inhibition (Jeko-1) | CI50 growth inhibition (OCI-Ly3)
W (W=≥1): CI50 growth inhibition (Mino) | CI50 inhibition (OCI-Ly7) | CI50 inhibition (OCI-Ly3) | CI50 inhibition (HBL-1)
A1 (A1=0.0001 to <1): Synergy Score growth inhibition (Mino) | Synergy Score inhibition (Mino) | Synergy Score growth inhibition (U-2932) | Synergy Score inhibition (U-2932) | Synergy Score growth inhibition (GRANTA-519) | Synergy Score inhibition (GRANTA-519) | Synergy Score growth inhibition (KARPAS-299) | Synergy Score inhibition (KARPAS-299) | Synergy Score growth inhibition (OCI-Ly7) | Synergy Score inhibition (OCI-Ly7) | Synergy Score inhibition (RPMI-8226) | Synergy Score inhibition (OCI-Ly3) | Synergy Score inhibition (HBL-1)
A3 (A3=>3): Synergy Score growth inhibition (WSU-NHL) | Synergy Score inhibition (WSU-NHL) | Synergy Score growth inhibition (NCI-H929) | Synergy Score growth inhibition (OMP-2) | Synergy Score growth inhibition (Farage) | Synergy Score inhibition (Farage) | Synergy Score growth inhibition (SU-DHL-4-epst) | Synergy Score inhibition (SU-DHL-4-epst) | Synergy Score growth inhibition (DOHH-2) | Synergy Score inhibition (DOHH-2) | Synergy Score growth inhibition (TMD8) | Synergy Score inhibition (TMD8) | Synergy Score growth inhibition (SU-DHL-10-epst) | Synergy Score inhibition (SU-DHL-10-epst) | Synergy Score growth inhibition (RL) | Synergy Score inhibition (RL) | Synergy Score growth inhibition (HH)
A2 (A2=1 to <3): Synergy Score inhibition (NCI-H929) | Synergy Score inhibition (OMP-2) | Synergy Score growth inhibition (RPMI-8226) | Synergy Score inhibition (HH) | Synergy Score growth inhibition (KARPAS-422) | Synergy Score inhibition (KARPAS-422) | Synergy Score growth inhibition (Jeko-1) | Synergy Score inhibition (Jeko-1) | Synergy Score growth inhibition (OCI-Ly3) | Synergy Score growth inhibition (HBL-1)
U (U=0.7 to <1): CI50 inhibition (Mino) | CI50 inhibition (NCI-H929) | CI50 inhibition (OMP-2) | CI50 growth inhibition (U-2932) | CI50 inhibition (U-2932) | CI50 growth inhibition (OCI-Ly7) | CI50 growth inhibition (RPMI-8226) | CI50 inhibition (RPMI-8226)

Nc1ncn([C@@H]2O[C@H](CO)[C@@H](O)[C@H]2O)c(=O)n1 [Azacitidine]
S (S=0.01 to <0.5): CI50 inhibition (WSU-NHL) | CI50 growth inhibition (Mino) | CI50 inhibition (Mino) | CI50 growth inhibition [1] | CI50 growth inhibition (U-2932) | CI50 growth inhibition (Farage) | CI50 inhibition (Farage) | CI50 growth inhibition (SU-DHL-4-epst) | CI50 inhibition (SU-DHL-4-epst) | CI50 growth inhibition (SU-DHL-10-epst) | CI50 inhibition (SU-DHL-10-epst) | CI50 growth inhibition (HH) | CI50 inhibition (HH) | CI50 growth inhibition (Jeko-1) | CI50 growth inhibition (OCI-Ly3) | CI50 growth inhibition (HBL-1)
T (T=0.5 to <0.7): CI50 growth inhibition (WSU-NHL) | CI50 growth inhibition (OCI-Ly7) | CI50 inhibition (OCI-Ly7) | CI50 growth inhibition (RL) | CI50 growth inhibition (RPMI-8226) | CI50 growth inhibition (KARPAS-422) | CI50 inhibition (Jeko-1)
W (W=≥1): CI50 inhibition (OMP-2) | CI50 inhibition (U-2932) | CI50 growth inhibition (KARPAS-299) | CI50 inhibition (KARPAS-299) | CI50 inhibition (RPMI-8226) | CI50 inhibition (HBL-1)
U (U=0.7 to <1): CI50 growth inhibition (NCI-H929) | CI50 inhibition (NCI-H929) | CI50 growth inhibition (GRANTA-519) | CI50 growth inhibition (DOHH-2) | CI50 inhibition (DOHH-2) | CI50 growth inhibition (TMD8) | CI50 inhibition (TMD8) | CI50 inhibition (RL) | CI50 inhibition (KARPAS-422)
